Results: patent publication US20260262643A1, “HERBICIDAL BENZOXAZINES” (FMC CORPORATION, priority 2022, published 2026)

Legend:
pigweed, palmer [1] = test: Test C postemergence; assay type: in vivo, Amaranthus palmeri; conditions: 10 days
In short: (§1)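 Greenhouse herbicide screen, 10-day duration. Test chemicals in solvent/surfactant blend were sprayed onto soil at sowing (pre) or onto 2–10 cm seedlings at one to two leaves (post); injury scored visually against controls, 0 no effect to 100 complete control.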

blackgrass [2] = test: Test C postemergence; assay type: in vivo, Alopecurus myosuroides; conditions: 10 days
In short: as §1

green foxtail [3] = test: Test C postemergence; assay type: in vivo, Setaria viridis; conditions: 10 days
In short: as §1

ragweed [4] = test: Test C preemergence; assay type: in vivo, Ambrosia artemisiifolia; conditions: for Ragweed plant response rating: preemergence, 0 to 100 scale (0 no effect, 100 complete control)
In short: as §1

green foxtail [5] = test: Test C preemergence; assay type: in vivo, Setaria viridis; conditions: for Foxtail, Green plant response rating: preemergence, 0 to 100 scale (0 no effect, 100 complete control)
In short: as §1

kochia [6] = test: Test C postemergence; assay type: in vivo, Bassia scoparia; conditions: 10 days
In short: as §1

barnyardgrass [7] = test: Test C preemergence; assay type: in vivo, Echinochloa crusgalli; conditions: for Barnyardgrass plant response rating: preemergence; for Plant response rating, Barnyardgrass: Preemergence
In short: as §1

galium = test: Test C postemergence; assay type: in vivo, Galium aparine; conditions: 10 days
In short: as §1

oat, wild [8] = test: Test C preemergence; assay type: in vivo, Avena fatua; conditions: for Oat, Wild plant response rating: preemergence, 0 to 100 scale (0 no effect, 100 complete control)
In short: as §1

corn [9] = test: Test C preemergence; assay type: in vivo, Zea mays; conditions: for Corn plant response rating: preemergence, 0 to 100 scale (0 no effect, 100 complete control)
In short: as §1

wheat [10] = test: Test C preemergence; assay type: in vivo, Triticum aestivum; conditions: for Wheat plant response rating: preemergence, 0 to 100 scale (0 no effect, 100 complete control)
In short: as §1

blackgrass [11] = test: Test C preemergence; assay type: in vivo, Alopecurus myosuroides; conditions: for Blackgrass plant response rating: preemergence; for Plant response rating, Blackgrass: Preemergence
In short: as §1

barnyardgrass [12] = test: Test D flooded paddy test; assay type: in vivo, Echinochloa crus-galli; conditions: 250 g ai/ha, applied to paddy water, visual rating after 13 to 14 days, scale 0 to 100 (0 no effect, 100 complete control)
In short: (§2)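 Plants at the 2-leaf stage were grown in pots flooded to 3 cm, and compound was applied directly into the paddy water, with depth kept throughout. After 13–14 days in a greenhouse, injury was rated visually against untreated controls on a 0–100 scale (100 = complete control); a dash means not tested.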

corn [13] = test: Test C postemergence; assay type: in vivo, Zea mays; conditions: 10 days
In short: as §1

ryegrass, Italian [14] = test: Test C preemergence; assay type: in vivo, Lolium multiflorum; conditions: for Ryegrass, Italian plant response rating: preemergence, 0 to 100 scale (0 no effect, 100 complete control)
In short: as §1

soybean [15] = test: Test C preemergence; assay type: in vivo, Glycine max; conditions: for Soybean plant response rating: preemergence, 0 to 100 scale (0 no effect, 100 complete control)
In short: as §1

rice = test: Test D flooded paddy test; assay type: in vivo, Oryza sativa; conditions: 250 g ai/ha, applied to paddy water, visual rating after 13 to 14 days, scale 0 to 100 (0 no effect, 100 complete control)
In short: as §2

sedge, umbrella = test: Test D flooded paddy test; assay type: in vivo, Cyperus difformis; conditions: 250 g ai/ha, applied to paddy water, visual rating after 13 to 14 days, scale 0 to 100 (0 no effect, 100 complete control)
In short: as §2

ryegrass, Italian [16] = test: Test C postemergence; assay type: in vivo, Lolium multiflorum; conditions: 10 days
In short: as §1

oat, wild [17] = test: Test C postemergence; assay type: in vivo, Avena fatua; conditions: 10 days
In short: as §1

ducksalad = test: Test D flooded paddy test; assay type: in vivo, Heteranthera limosa; conditions: 250 g ai/ha, applied to paddy water, visual rating after 13 to 14 days, scale 0 to 100 (0 no effect, 100 complete control)
In short: as §2

soybean [18] = test: Test C postemergence; assay type: in vivo, Glycine max; conditions: 10 days
In short: as §1

ragweed [19] = test: Test C postemergence; assay type: in vivo, Ambrosia artemisiifolia; conditions: 10 days
In short: as §1

kochia [20] = test: Test C preemergence; assay type: in vivo, Bassia scoparia; conditions: for Kochia plant response rating: preemergence, 0 to 100 scale (0 no effect, 100 complete control)
In short: as §1

horseweed = test: Test C postemergence; assay type: in vivo, Erigeron canadensis; conditions: 10 days
In short: as §1

wheat [21] = test: Test C postemergence; assay type: in vivo, Triticum aestivum; conditions: 10 days
In short: as §1

pigweed, palmer [22] = test: Test C preemergence; assay type: in vivo, Amaranthus palmeri; conditions: for Pigweed, Palmer plant response rating: preemergence, 0 to 100 scale (0 no effect, 100 complete control)
In short: as §1

barnyardgrass [23] = test: Test C postemergence; assay type: in vivo, Echinochloa crusgalli; conditions: 10 days
In short: as §1

[24] = 500 g ai/ha, postemergence, 0 to 100 scale (0 no effect, 100 complete control)
[25] = Postemergence, 125 g ai/ha, 0 to 100 scale (0 no effect, 100 complete control)
[26] = Preemergence, 125 g ai/ha, 0 to 100 scale, 0 no effect, 100 complete control
[27] = 500 g ai/ha, 0 to 100 scale (0 no effect, 100 complete control)
[28] = 125 g ai/ha, 0 to 100 scale, 0 no effect, 100 complete control
[29] = 125 g ai/ha, postemergence, 0 to 100 scale, 0 no effect, 100 complete control
[30] = Postemergence, 500 g ai/ha, visual 0 to 100 scale (0 no effect, 100 complete control)
[31] = 500 g ai/ha, visual rating after 10 days, 0 to 100 scale (0 no effect, 100 complete control)
[32] = Test C, 125 g ai/ha, 0 to 100 scale (0 no effect, 100 complete control)

CCOC[C@H]1CN(C(=O)c2cc(-n3cnc(C(C)C)n3)ccc2C)c2cccc(Cl)c2O1 [Compound 340, [(2R)-8-chloro-2-(ethoxymethyl)-2,3-dihydro-1,4-benzoxazin-4-yl]-[5-(3-isopropyl-1,2,4-triazol-1-yl)-2-methyl-phenyl]methanone]
Plant response rating, Pigweed, Palmer (pigweed, palmer [1]; [24]): 100 | Plant response rating, Pigweed, Palmer (pigweed, palmer [1]; [25]): 80 | pest or weed control at 500 g/ha (blackgrass [2]; Alopecurus myosuroides, post-emergence, 240 h, 500 g ai/ha, postemergence, 0 to 100 scale (0 no effect, 100 complete control), read-out: Plant response rating, Blackgrass): 60% | pest or weed control at 125 g/ha (blackgrass [2]; Alopecurus myosuroides, post-emergence, 240 h, Postemergence, 125 g ai/ha, 0 to 100 scale (0 no effect, 100 complete control), read-out: Plant response rating, Blackgrass): 20% | Plant response rating, Foxtail, Green (green foxtail [3]; [24]): 70 | Plant response rating, Foxtail, Green (green foxtail [3]; [25]): 30 | Ragweed plant response rating (ragweed [4]; 500 g ai/ha): 100 | Plant response rating, Ragweed (ragweed [4]; [26]): 80 | Foxtail, Green plant response rating (green foxtail [5]; 500 g ai/ha): 100 | Plant response rating, Foxtail, Green (green foxtail [5]; [26]): 100 | Plant response rating, Kochia (kochia [6]; [24]): 90 | Plant response rating, Kochia (kochia [6]; [25]): 90 | Barnyardgrass plant response rating (barnyardgrass [7]; [27]): 100 | Plant response rating, Barnyardgrass (barnyardgrass [7]; [28]): 90 | Plant response rating, Galium (galium; [24]): 100 | Plant response rating, Galium (galium; [25]): 90 | Oat, Wild plant response rating (oat, wild [8]; 500 g ai/ha): 80 | Plant response rating, Oat, Wild (oat, wild [8]; [26]): 70 | Corn plant response rating (corn [9]; 500 g ai/ha): 40 | Plant response rating, Corn (corn [9]; [26]): 20 | Wheat plant response rating (wheat [10]; 500 g ai/ha): 80 | Plant response rating, Wheat (wheat [10]; [26]): 50 | Blackgrass plant response rating (blackgrass [11]; [27]): 90 | Plant response rating, Blackgrass (blackgrass [11]; [28]): 50 | Plant response rating, Barnyardgrass (Flood) (barnyardgrass [12]): 0 | Corn plant response rating (crop injury, 0 = no effect, 100 = complete kill) at 500 g/ha (corn [13]; Zea mays, post-emergence, 240 h, 500 g ai/ha, postemergence, 0 to 100 scale (0 no effect, 100 complete control)): 60% | Corn plant response rating (crop injury, 0 = no effect, 100 = complete kill) at 125 g/ha (corn [13]; Zea mays, post-emergence, 240 h, Postemergence, 125 g ai/ha, 0 to 100 scale (0 no effect, 100 complete control)): 60% | Ryegrass, Italian plant response rating (ryegrass, Italian [14]; 500 g ai/ha): 100 | Plant response rating, Ryegrass, Italian (ryegrass, Italian [14]; [26]): 90 | Soybean plant response rating (soybean [15]; 500 g ai/ha): 100 | Plant response rating, Soybean (soybean [15]; [26]): 30 | Plant response rating, Rice (Flood) (rice): 0 | Plant response rating, Sedge, Umbrella (Flood) (sedge, umbrella): 60 | Plant response rating, Ryegrass, Italian (ryegrass, Italian [16]; [24]): 80 | Plant response rating, Ryegrass, Italian (ryegrass, Italian [16]; [25]): 60 | Plant response rating, Oat, Wild (oat, wild [17]; [24]): 20 | Plant response rating, Oat, Wild (oat, wild [17]; [25]): 10 | Plant response rating, Ducksalad (Flood) (ducksalad): 75 | Plant response rating, Soybean (soybean [18]; [24]): 100 | Plant response rating, Soybean (soybean [18]; [25]): 100 | Plant response rating, Ragweed (ragweed [19]; [24]): 80 | Plant response rating, Ragweed (ragweed [19]; [25]): 70 | Kochia plant response rating (kochia [20]; 500 g ai/ha): 100 | Plant response rating, Kochia (kochia [20]; [26]): 90 | Plant response rating, Horseweed (horseweed; [24]): 60 | Plant response rating, Horseweed (horseweed; [25]): 30 | Plant response rating, Wheat (wheat [21]; [24]): 30 | Plant response rating, Wheat (wheat [21]; [25]): 10 | Pigweed, Palmer plant response rating (pigweed, palmer [22]; 500 g ai/ha): 100 | Plant response rating, Pigweed, Palmer (pigweed, palmer [22]; [26]): 100 | Plant response rating, Barnyardgrass (barnyardgrass [23]; [24]): 60 | Plant response rating, Barnyardgrass (barnyardgrass [23]; [25]): 50

Cc1ccc(-n2cnc(C3(C)COC3)n2)cc1C(=O)N1C[C@H](C)Oc2c(Cl)cccc21 [Compound 275]
Plant response rating, Pigweed, Palmer (pigweed, palmer [1]; [29]): 80 | Plant response rating, Blackgrass (blackgrass [2]; [29]): 80 | Plant response rating, Blackgrass (blackgrass [2]; [30]): 90 | Plant response rating, Foxtail, Green (green foxtail [3]; [29]): 70 | Plant response rating, Foxtail, Green (green foxtail [3]; [30]): 90 | Ragweed plant response rating (ragweed [4]; 500 g ai/ha): 80 | Ragweed plant response rating (ragweed [4]; Test C, 125 g ai/ha): 60 | Foxtail, Green plant response rating (green foxtail [5]; 500 g ai/ha): 100 | Foxtail, Green plant response rating (green foxtail [5]; Test C, 125 g ai/ha): 100 | Plant response rating, Kochia (kochia [6]; [29]): 80 | Plant response rating, Barnyardgrass (barnyardgrass [7]; [31]): 100 | Barnyardgrass plant response rating (barnyardgrass [7]; [32]): 100 | Plant response rating, Galium (galium; [29]): 100 | Plant response rating, Galium (galium; [30]): 100 | Oat, Wild plant response rating (oat, wild [8]; 500 g ai/ha): 90 | Oat, Wild plant response rating (oat, wild [8]; Test C, 125 g ai/ha): 50 | Corn plant response rating (corn [9]; 500 g ai/ha): 60 | Corn plant response rating (corn [9]; Test C, 125 g ai/ha): 30 | Wheat plant response rating (wheat [10]; 500 g ai/ha): 70 | Wheat plant response rating (wheat [10]; Test C, 125 g ai/ha): 30 | Plant response rating, Blackgrass (blackgrass [11]; [31]): 90 | Blackgrass plant response rating (blackgrass [11]; [32]): 50 | Plant response rating, Barnyardgrass (Flood) (barnyardgrass [12]): 35 | Plant response rating, Corn (corn [13]; [29]): 10 | Plant response rating, Corn (corn [13]; [30]): 90 | Ryegrass, Italian plant response rating (ryegrass, Italian [14]; 500 g ai/ha): 100 | Ryegrass, Italian plant response rating (ryegrass, Italian [14]; Test C, 125 g ai/ha): 80 | Soybean plant response rating (soybean [15]; 500 g ai/ha): 100 | Soybean plant response rating (soybean [15]; Test C, 125 g ai/ha): 80 | Plant response rating, Rice (Flood) (rice): 10 | Plant response rating, Sedge, Umbrella (Flood) (sedge, umbrella): 95 | Plant response rating, Ryegrass, Italian (ryegrass, Italian [16]; [29]): 90 | Plant response rating, Oat, Wild (oat, wild [17]; [29]): 60 | Plant response rating, Ducksalad (Flood) (ducksalad): 85 | Plant response rating, Soybean (soybean [18]; [29]): 100 | Plant response rating, Ragweed (ragweed [19]; [29]): 80 | Kochia plant response rating (kochia [20]; 500 g ai/ha): 100 | Kochia plant response rating (kochia [20]; Test C, 125 g ai/ha): 80 | Plant response rating, Horseweed (horseweed; [29]): 60 | Plant response rating, Horseweed (horseweed; [30]): 90 | Plant response rating, Wheat (wheat [21]; [29]): 40 | Pigweed, Palmer plant response rating (pigweed, palmer [22]; 500 g ai/ha): 100 | Pigweed, Palmer plant response rating (pigweed, palmer [22]; Test C, 125 g ai/ha): 100 | Plant response rating, Barnyardgrass (barnyardgrass [23]; [29]): 50 | Plant response rating, Barnyardgrass (barnyardgrass [23]; [30]): 90
